Laboratory results as given in patent US20230129258A1, “HETEROTANDEM BICYCLIC PEPTIDE COMPLEXES” (BicycleTx Limited, priority 2019, published 2023).
Read-outs that look alike come from different tables or passages of the source. Starred links: 1 amine or outer side, 2 acyl side, 3 side chain; linkers in the order of their positions; H or OH if unused. Positions of bridges follow the written chain, without caps; N, C: chain ends. Non-standard residues stand in square brackets, D forms with d. Chains are numbered I, II in the order given. X1 = O=C(CCOCCOCCOCCN(CCOCCOCCOCCn1cc(CCC(=O)[*:2])nn1)CCOCCOCCOCCn1cc(CCC(=O)[*:3])nn1)[*:1]; TATA = O=C(CC[*:1])N1CN(C(=O)CC[*:2])CN(C(=O)CC[*:3])C1; d1Nal = N[C@H](Cc1cccc2ccccc12)C(=O)O; Hyp = O=C(O)[C@@H]1C[C@@H](O)CN1; hArg = N=C(N)NCCCC[C@H](N)C(=O)O; tBuAla = CC(C)(C)C[C@H](N)C(=O)O; Nle = CCCC[C@H](N)C(=O)O

What was measured:
MC38 #13 tumors = assay: Anti-tumor activity in syngeneic Nectin-4 overexpressing MC38 tumor model (MC38 #13); format: in vivo, C57BL/6J-hCD137 mice; conditions: for complete tumor responses: day 15; for complete responders: day 52, IV
Experimental: 6-8 weeks old C57BL/6J-hCD137 female mice were inoculated in the flank with 1×10^6 syngeneic Nectin-4 overexpressing MC38 cells (MC38 #13). When tumors reached 72 mm^3 size on average, mice were randomized to receive vehicle or BCY11863 (intraperitoneal administration). BCY11863 was administered (n=6 mice/treatment cohort) at either 1 mg/kg or 10 mg/kg either daily (QD) or every three days (Q3D). QD dosed mice received 16 doses of BCY11863 and Q3D dosed mice received […] of BCY11863. Tumor growth was monitored by caliper measurements until day 69 after treatment initiation. […] By day 48, 22 out of 24 BCY11863-treated animals had responded to the treatment completely and had no palpable tumors remaining.
6-8 week old female C57BL/6J-hCD137 mice [B-hTNFRSF9(CD137) mice; Biocytogen] were implanted subcutaneously with 1×10^6 MC38 #13 (MC38 cells engineered to overexpress murine Nectin-4) cells. Mice were randomized into treatment groups (n=6/cohort) when average tumor volumes reached around 95 mm^3 and were treated with a weekly dose of vehicle (25 mM histidine, 10% sucrose, pH7) or 10 mg/kg BCY11863 with two different dosing schedules for two dosing cycles (5 mg/kg BCY11863 at 0 h and 24 h on DO and D7, or 10 mg/kg at 0 h on DO and D7). All treatments were administered intravenously (IV). Tumor growth was monitored until Day 15 from treatment initiation.
At 3 weekly doses of 3, 10 and 30 mg/kg with dose fractionated weekly, biweekly and daily 6-8 week old female C57BL/6J-hCD137 mice [B-hTNFRSF9(CD137) mice; Biocytogen] were implanted subcutaneously with 1×10^6 MC38 #13 (MC38 cells engineered to overexpress murine Nectin-4) cells. Mice were randomized into treatment groups (n=6/cohort) when average tumor volumes reached around 107 mm^3 and were treated with 21 daily doses of vehicle (25 mM histidine, 10% sucrose, pH7). BCY11863 treatment was done at three different total dose levels (3, 10 and 30 mg/kg total weekly dose) fractionated in three different schedules (QD: daily; BIW: twice a week or QW: weekly). Different BCY11863 treatment cohorts received either 21 daily doses (0.43, 1.4 or 4.3 mg/kg), 6 twice weekly doses (1.5, 5 or 15 mg/kg) or 3 weekly doses (3, 10 or 30 mg/kg). All treatments were administered intravenously (IV). Tumor growth was monitored until tumor reached volumes over 2000 mm^3 or until 31 days after treatment initiation. Complete responders (animals with no palpable tumors) were followed until D52.

[1] = Pharmacokinetics in cynomolgus monkey; format: in vivo; conditions: plasma
Experimental: Serial bleeding (about 1.2 ml blood/time point) was performed from a peripheral vessel from restrained, non-sedated animals at each time point into a commercially available tube containing Potassium (K2) EDTA*2H2O (0.85-1.15 mg) on wet ice and processed for plasma. Samples were centrifuged (3,000×g for 10 minutes at 2 to 8° C.) immediately after collection. 0.1 mL plasma was transferred into labelled polypropylene micro-centrifuge tubes. 5-fold of the precipitant including internal standard 100 ng/mL Labetalol & 100 ng/mL dexamethasone & 100 ng/mL tolbutamide & 100 ng/mL Verapamil & 100 ng/mL Glyburide & 100 ng/mL Celecoxib in MeOH was immediately added into the plasma, mixed well and centrifuged at 12,000 rpm for 10 minutes at 2 to 8° C. Samples of supernatant were transferred into the pre-labeled polypropylene microcentrifuge tubes, and frozen over dry ice. The samples were stored at −60° C. or below until LC-MS/MS analysis. An aliquot of 40 μL calibration standard, quality control, single blank and double blank samples were added to the 1.5 mL tube. Each sample (except the double blank) was quenched with 200 μL IS1 respectively (double blank sample was quenched with 200 μL MeOH with 0.5% tritonX-100), and then the mixture was vortex-mixed well (at least 15 s) with vortexer and centrifuged for 15 min at 12000 g, 4° C. A 10 μL supernatant was injected for LC-MS/MS analysis using an Orbitrap Q Exactive in positive ion mode to determine the concentrations of analyte. Plasma concentration versus time data were analyzed by non-compartmental approaches using the Phoenix WinNonlin 6.3 software program. C0, CI, Vdss, T½, AUC(0-last), AUC(0-inf), MRT(0-last), MRT(0-inf) and graphs of plasma concentration versus time profile were reported.

CD137 = CD137 (Homo sapiens, UniProt Q07011); assay: CD137 reporter assay (Promega CD137 luciferase reporter, Jurkat cells) in co-culture with Nectin-4-expressing tumor cells; format: cell-based; set-up: host or cells: Jurkat reporter cells; conditions: for EC50: Arithmetic mean EC50 (nM)
CD137, sequence (Q07011 24-255): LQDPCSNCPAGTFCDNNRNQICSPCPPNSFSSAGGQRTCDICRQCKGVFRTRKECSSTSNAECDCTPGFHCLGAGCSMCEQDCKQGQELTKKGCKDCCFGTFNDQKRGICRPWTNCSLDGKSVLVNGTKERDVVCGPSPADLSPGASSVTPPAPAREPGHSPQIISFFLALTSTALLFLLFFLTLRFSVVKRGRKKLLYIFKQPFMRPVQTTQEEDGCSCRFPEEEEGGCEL

With CCCC[C@@H]1NC(=O)[C@H](Cc2ccc(O)cc2)NC(=O)[C@@H]2CCCN2C(=O)[C@H](CC(=O)O)NC(=O)[C@H](C)NC(=O)[C@H](Cc2ccccc2)NC(=O)[C@@H]2CSCCC(=O)N3CN(CN(C3)C(=O)CCSC[C@@H](C(=O)N[C@@H](C)C(N)=O)NC1=O)C(=O)CCSC[C@H](NC(C)=O)C(=O)N[C@@H](CC(C)(C)C)C(=O)N1CCC[C@H]1C(=O)N[C@@H](CCC(=O)O)C(=O)N[C@H](CCCCNC(=O)CCc1cn(CCOCCOCCOCCN(CCOCCOCCOCCC(=O)N[C@H]3CSCCC(=O)N4CN5CN(C4)C(=O)CCSC[C@H](NC(=O)[C@@H](CC(=O)O)NC(=O)[C@H](Cc4cccc6ccccc46)NC(=O)[C@@H]4CCCN4C3=O)C(=O)N[C@@H](CCSC)C(=O)N[C@@H](CCCCNC(=N)N)C(=O)N[C@@H](CC(=O)O)C(=O)N[C@@H](Cc3c[nH]c4ccccc34)C(=O)N[C@@H](CO)C(=O)N[C@@H]([C@@H](C)O)C(=O)N3CCC[C@H]3C(=O)N3C[C@H](O)C[C@H]3C(=O)N[C@@H](Cc3c[nH]c4ccccc34)C(=O)N[C@H](C(N)=O)CSCCC5=O)CCOCCOCCOCCn3cc(CCC(=O)NCCCC[C@H]4NC(=O)[C@H](CCC(=O)O)NC(=O)[C@@H]5CCCN5C(=O)[C@H](CC(C)(C)C)NC(=O)[C@@H](NC(C)=O)CSCCC(=O)N5CN6CN(C5)C(=O)CCSC[C@H](NC(=O)[C@H](Cc5ccc(O)cc5)NC(=O)[C@@H]5CCCN5C4=O)C(=O)N[C@@H](Cc4ccccc4)C(=O)N[C@@H](C)C(=O)N[C@@H](CC(=O)O)C(=O)N4CCC[C@H]4C(=O)N[C@@H](Cc4ccc(O)cc4)C(=O)N[C@@H](CCCC)C(=O)N[C@H](C(=O)N[C@@H](C)C(N)=O)CSCCC6=O)nn3)nn1)C(=O)N1CCC[C@H]1C(=O)N[C@@H](Cc1ccc(O)cc1)C(=O)N2 [BCY11863] the tumor growth (MC38 #13 tumors; 1 or 10 mg/kg, QD or Q3D, ip, p<0.05 vs vehicle, 2 cohorts by day 7, all by day 14) was “significant reduction”, the “animals responded completely, no palpable tumors” value (MC38 #13 tumors; by day 48, all cohorts, 1 or 10 mg/kg, QD or Q3D, ip) was 22 out of 24 and the complete tumor responses (MC38 #13 tumors; 5 mg/kg at 0 h and 24 h on D0 and D7, IV) was 4 out of 6. The complete tumor responses (MC38 #13 tumors; 10 mg/kg at 0 h on D0 and D7, IV) was “one out of 6”, the complete responders (MC38 #13 tumors; 5 mg/kg BIW) was 6/6 and the complete responders (MC38 #13 tumors; BIW (1.5, 5 or 15 mg/kg)) was 15/18. The complete responders (MC38 #13 tumors; QD (0.43, 1.4 or 4.3 mg/kg)) was 12/18, the complete responders (MC38 #13 tumors; QW (3, 10 or 30 mg/kg)) was 6/18 and the Vd ([1]; 0.93 mg/kg IV infusion (30 min), read-out: Vdss) was 0.62 L/kg. It also gave a clearance ([1]; 0.97 mg/kg IV infusion (15 min), read-out: Clp) of 4.8 mL/min/kg, a half-life ([1]; 0.97 mg/kg IV infusion (15 min), read-out: T1/2 (converted)) of 4.5 h and a Vd ([1]; 0.97 mg/kg IV infusion (15 min), read-out: Vdss) of 0.91 L/kg. The Vd ([1]; 1 mg/kg IV infusion, n=2, read-out: volume of distribution at steady state (Vdss)) was 0.62 L/kg, the clearance ([1]; 9.4 mg/kg IV infusion (15 min), read-out: Clp) was 3.9 mL/min/kg and the half-life ([1]; 9.4 mg/kg IV infusion (15 min), read-out: T1/2 (converted)) was 8.9 h. The Vd ([1]; 9.4 mg/kg IV infusion (15 min), read-out: Vdss) was 1.1 L/kg, the EC50 (CD137; co-culture with CT26#7 (mouse)) was 0.14 ± 0.07 nM and the EC50 (CD137; co-culture with HT1376 (human), Table 1B) was 0.52 ± 0.3 nM. It also gave an EC50 (CD137; co-culture with MC38#13 (mouse)) of 0.31 ± 0.26 nM, an EC50 (CD137; co-culture with MDA-MB-468 (human)) of 0.23 ± 0.01 nM and an EC50 (CD137; co-culture with NCI-H292 (human), Table 1B) of 0.28 ± 0.2 nM. The EC50 (CD137; co-culture with NCI-H322 (human)) was 0.33 ± 0.21 nM, the EC50 (CD137; co-culture with T47D (human)) was 0.42 ± 0.24 nM and the “CD137 activation in CD137 reporter assay” value (CD137; FIG. 1A, Nectin-4 expressing H292 cells) was “induces strong CD137 activation”. For the same compound, the “Fold improvement in EC50 over BCY10000 on same plate” value (CD137; co-culture with NCI-H292) was 4.56 fold, the “Fold improvement in Emax over BCY10000 on same plate” value (CD137; co-culture with NCI-H292) was 2.16 fold and the “Fold Induction over Background” value (CD137; co-culture with NCI-H292, Table 1A) was 81 ± 29 fold.

Work on “I: A[hArg]DC[Hyp]LVNPLCLEP[d1Nal]WTC-NH2 / II: Ac-C[tBuAla]PE[dK]PYCFADPY[Nle]CA-NH2 / III: Ac-C[tBuAla]PE[dK]PYCFADPY[Nle]CA-NH2 (linker I:4-I:11-I:18, II:1-II:8-II:15, III:1-III:8-III:15 via TATA; linker I:N-II:5-III:5 via X1) [BCY13272]” yielded a clearance ([1]; 9.2 mg/kg IV infusion (15 min), read-out: clearance) of 4.1 mL/min/kg, a Vd ([1]; 9.2 mg/kg IV infusion (15 min), read-out: volume of distribution at steady state (Vdss)) of 0.82 L/kg and a half-life ([1]; IV infusion (15 min), 9.2 mg/kg, read-out: T1/2 (converted)) of 8.9 h. It also gave a half-life ([1]; IV infusion (15 min), dose 9.2 mg/kg, 8.9 mg/kg, read-out: terminal half life (converted)) of 8.9 h.
